Measurements reported in paper PMC8450399, “Expression Profiles and Functional Characterization of Chemosensory Protein 15 (HhalCSP15) in the Brown Marmorated Stink Bug Halyomorpha halys” (Frontiers in Physiology, 2021).

Tests used:
HhalCSP15 = assay: Fluorescence competitive binding assay with 1-NPN as fluorescent probe; parameters: species or system Halyomorpha halys; conditions: for Ki: Ki=IC50/(1+[1-NPN]/K1-NPN), HhalCSP15 and 1-NPN 2 μM, pH 7.4, triplicate, read-out: Ki, dissociation constant; for binding ability with HhalCSP15 (in words): fluorescence binding experiments
Method: The binding abilities of HhalCSP15 to 43 volatiles were measured on an F-380 fluorescence spectrophotometer (Tianjin, China) using 10-nm slits and a 1-cm light path. As the fluorescent probe, N-phenyl-1-naphthylamine (1-NPN) was excited at the wavelength of 337nm, and emission spectra were recorded between 390 and 530nm. To measure the affinity of 1-NPN to the HhalCSP15 protein, a 2-μM solution of purified protein in 50-mM Tris-HCl at pH 7.4 was titrated with aliquots of 1-mM 1-NPN dissolved in methanol to final concentrations ranging from 2 to 16μM.
[…] Dissociation constants of the competitors were calculated by the equation Ki=IC50/(1+[1-NPN]/K1-NPN), where IC50 is the concentration of ligands halving the initial fluorescence value of 1-NPN, [1-NPN] is the free concentration of 1-NPN, and K1-NPN is the dissociation constant of the HhalCSP15/1-NPN complex.

[1] = test system: Halyomorpha halys antennae; assay: Electroantennography (EAG) recordings; conditions: 10 μl of 100 μg/μl in paraffin oil; for EAG response of antennae (in words; comparison among nymphs, females, males): third instar nymphs and 1- to 3-day old male and female adults, solvent-corrected
Method: The antennal responses of H. halys to the three ligands of […]15 were evaluated using conventional EAG methods as described in previous study ([Wang et al., 2020]). Briefly, antennae of the third instar nymphs and 1- to 3-day old male and female adults were dissected, and a few terminal segments at the distal end were excised. The treated antennae were attached to electrode holders with electrode gel. Ten microliters of tested chemicals (100μg/μl, diluted in paraffin oil) were applied to filter paper strips (1.0cm×2.0cm) and inserted into a glass Pasteur pipette as a cartridge. The test cartridge was connected to a stimulus controller (CS-55; Syntech, Kirchzarten, Germany) that generated a 0.5s stimulus at 30s intervals, with a constant flow of 10ml/s. The signals generated by the antennae were recorded using EAG Pro (Syntech). A blank stimulus (solvent control) was presented before testing the compound. For each compound, EAG responses were recorded from eight antennae of different insects. The EAG responses elicited by the test odor stimuli were corrected by subtracting EAG response from the solvent control. The corrected EAG data were statistically analyzed using ANOVA followed by Tukey's HSD test.

| SMILES | EAG response of antennae (in words; comparison among nymphs, females, males) [1] | Ki (HhalCSP15) | binding ability with HhalCSP15 (in words) (HhalCSP15) | other results |
| --- | --- | --- | --- | --- |
| c1ccc(Nc2cccc3ccccc23)cc1 [1-NPN, N-phenyl-1-naphthylamine, reference compound] | – | – | – | Kd (HhalCSP15; 2 μM protein in 50 mM Tris-HCl pH 7.4 titrated with 1-NPN 2 to 16 μM, read-out: dissociation constant of the HhalCSP15/1-NPN complex): 9.36 µM |
| CC(=O)/C=C/C1=C(C)CCCC1(C)C [β-Ionone] | elicit an EAG response in both nymph and adult H. halys antennae | 11.9 ± 0.6 µM | strong binding abilities | EAG response of antennae (in words; comparison among nymphs, females, males) ([1]; listed as β-ionone): significantly greater responses in females compared with males and nymphs |
| CC/C=C\CCOC(=O)c1ccccc1 [cis-3-Hexen-1-yl benzoate] | – | 10.5 ± 0.8 µM | strong binding abilities | EAG response compared among ligands (in words) ([1]; nymphs and adults): highest EAG response among all ligands in both nymphs and adults; EAG response of antennae (in words; comparison among nymphs, females, males) ([1]; listed as Cis-3-hexen-1-yl benzoate): significantly greater responses in females compared with males and nymphs; EAG response of antennae (in words; comparison among nymphs, females, males) ([1]; listed as cis-3-hexen-1-yl benzoate): elicit an EAG response in both nymph and adult H. halys antennae |
| CCCCCCCCCCCCC [Tridecane] | – | – | could not bind | – |
| CCC\C=C/C=C/C=C/C(=O)OC [Methyl (2E,4E,6Z)-decatrienoate] | significantly greater EAG responses in adults compared with nymphs | 9.6 ± 0.4 µM | identified as a binding ligand | – |
| CCCCCCC/C=C/C=O [trans-2-Decenal] | – | – | could not bind | – |
